The text below walks through data of US7999126B2, “Palladium(0)-dibenzylidene acetone complexes” (priority 2007, dated 2011).

The data set can be described thus: Solubility Test: CHCl3-insoluble residue of the product. Type of data set: physicochemical. As to conditions: 1.00 g product in 150 ml chloroform. Here is the method: 1.00 g of the product are dissolved in 150 ml of chloroform and stirred at room temperature for 30 minutes. The solution is then aspirated through a membrane filter. The filter is washed with 30 ml of water and 30 ml of acetone and subsequently dried over night at 45° C. in vacuo.
1.00 g of the product were dissolved in 150 ml of chloroform and stirred for 30 minutes at room temperature. The solution was aspirated through a membrane filter. The filter was washed with 30 ml of water and 30 ml of acetone and subsequently dried over night at 45° C. in vacuo.
1.00 g of the product were dissolved in 150 ml of chloroform and stirred for 30 minutes at room temperature. The solution was aspirated through a membrane filter. The filter was washed with 30 ml of water and 30 ml of acetone, and the filter was subsequently dried over night at 45° C. in vacuo.

For `O=C(/C=C/c1ccccc1)/C=C/c1ccccc1.O=C(/C=C/c1ccccc1)/C=C/c1ccccc1.[Pd]` [Experiment 1, Pd(dba)2], where the note is “room temperature”, the CHCl3-insoluble ingredients turned out to be 0%. Further, for the setting “stirred 30 minutes at room temperature, membrane filter, filter dried”, the “residue (Solubility Test)” value is listed as 0%.
